Measured values from the supplement of paper PMC10307832.

Experiments:
Assay in all cases: relative viability (nuclei count vs DMSO), 5 days (fraction); higher = more cells survive
XMD13-2 + Trametinib = compound: C1CC1C(=O)NC2=NNC3=C2C=CC(=C3)C4=CC(=CC=C4)C(=O)NC5CC5 [XMD13-2] + CC(=O)Nc1cccc(-n2c(=O)n(C3CC3)c(=O)c3c(Nc4ccc(I)cc4F)n(C)c(=O)c(C)c32)c1 [Trametinib] (partner 0.02 µM)
Method in brief: (§1)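 After 5 days of treatment, lung cancer cells in 1536-well plates were fixed and stained in a single step (final 0.05% Triton X-100, 1% formaldehyde, 1 ug/ml Hoechst) and their nuclei counted on 4× images. Treatment had been applied by pin tool the day after seeding as one drug alone or as a fixed anchor-drug dose with five library-drug doses (not always all listed) in √10 steps. Relative viability is the nuclei count of treated wells divided by that of vehicle wells, and values are medians of duplicate plates.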

XMD13-2 + Dasatinib = compound: C1CC1C(=O)NC2=NNC3=C2C=CC(=C3)C4=CC(=CC=C4)C(=O)NC5CC5 [XMD13-2] + Cc1nc(Nc2ncc(C(=O)Nc3c(C)cccc3Cl)s2)cc(N2CCN(CCO)CC2)n1 [Dasatinib] (partner 0.075 µM)
Method in brief: as §1

ALW-II-49-7 + Linsitinib = compound: Cc1ccc(C(=O)Nc2cccc(C(F)(F)F)c2)cc1Nc1cncc(C(N)=O)c1 [ALW-II-49-7] + C[C@]1(O)C[C@@H](c2nc(-c3ccc4ccc(-c5ccccc5)nc4c3)c3c(N)nccn32)C1 [Linsitinib] (partner 1 µM)
Method in brief: as §1

ALW-II-49-7 + Dasatinib = compound: Cc1ccc(C(=O)Nc2cccc(C(F)(F)F)c2)cc1Nc1cncc(C(N)=O)c1 [ALW-II-49-7] + Cc1nc(Nc2ncc(C(=O)Nc3c(C)cccc3Cl)s2)cc(N2CCN(CCO)CC2)n1 [Dasatinib] (partner 0.075 µM)
Method in brief: as §1

Cell Line	relative viability (XMD13-2 + Trametinib; first compound 0.05 µM)	relative viability (XMD13-2 + Trametinib; first compound 0.1581 µM)	relative viability (XMD13-2 + Trametinib; first compound 0.5 µM)	relative viability (XMD13-2 + Trametinib; first compound 1.581 µM)	relative viability (XMD13-2 + Trametinib; first compound 5 µM)	relative viability (XMD13-2 + Dasatinib; first compound 0.05 µM)	relative viability (XMD13-2 + Dasatinib; first compound 0.1581 µM)	relative viability (XMD13-2 + Dasatinib; first compound 0.5 µM)	relative viability (XMD13-2 + Dasatinib; first compound 1.581 µM)	relative viability (XMD13-2 + Dasatinib; first compound 5 µM)	relative viability (ALW-II-49-7 + Linsitinib; first compound 0.08 µM)	relative viability (ALW-II-49-7 + Linsitinib; first compound 0.253 µM)	relative viability (ALW-II-49-7 + Linsitinib; first compound 0.8 µM)	relative viability (ALW-II-49-7 + Linsitinib; first compound 2.53 µM)	relative viability (ALW-II-49-7 + Linsitinib; first compound 8 µM)	relative viability (ALW-II-49-7 + Dasatinib; first compound 0.08 µM)	relative viability (ALW-II-49-7 + Dasatinib; first compound 0.253 µM)	relative viability (ALW-II-49-7 + Dasatinib; first compound 0.8 µM)	relative viability (ALW-II-49-7 + Dasatinib; first compound 2.53 µM)	relative viability (ALW-II-49-7 + Dasatinib; first compound 8 µM)
NCI-H23	0.358	0.432	0.438	0.371	0.353	0.907	0.725	0.82	0.748	0.99	0.56	0.55	0.68	0.591	0.618	0.84	0.871	0.574	0.706	0.768
NCI-H322M	0.396	0.51	0.446	–	0.565	0.237	0.239	0.24	0.263	0.283	0.846	0.902	0.909	0.836	0.673	0.246	0.256	0.261	0.251	0.231
NCI-H358	0.128	0.127	0.132	0.13	0.135	0.201	0.162	0.142	0.174	0.171	0.801	0.661	0.816	0.725	0.742	0.151	0.159	0.173	0.192	0.286
NCI-H441	0.569	0.452	0.459	0.535	0.538	0.567	0.668	0.54	0.625	0.516	0.529	0.61	0.432	0.496	0.508	0.497	0.475	0.684	0.674	0.459
NCI-H460	0.288	0.13	0.209	0.195	0.167	0.636	0.466	0.525	0.578	0.626	0.464	0.667	0.766	0.566	0.566	0.492	0.583	0.563	0.423	0.507
NCI-H520	0.7	0.7	0.723	0.563	0.396	0.213	0.261	0.208	0.231	0.182	0.779	1.04	–	1.16	0.951	0.218	0.192	0.202	0.172	0.177
NCI-H596	0.826	0.857	0.965	0.954	0.798	0.683	0.571	0.578	0.713	0.664	1.1	1.08	1.11	1.06	1.1	0.575	0.632	0.459	0.582	0.581
NCI-H647	0.621	0.4	0.587	0.431	0.305	0.17	0.172	0.207	0.13	0.115	1.1	1.35	1.03	1.04	1.05	0.153	0.131	0.15	0.161	0.193
NCI-H650	1.37	1.02	1.05	0.917	0.991	0.463	0.452	0.524	0.39	0.546	0.836	0.793	0.941	0.811	0.54	0.42	0.518	0.421	0.482	0.341
NCI-H661	0.538	0.614	0.665	0.615	0.409	0.973	0.96	0.811	0.737	0.523	0.631	0.534	0.493	–	0.536	0.782	1.06	0.965	0.832	0.767
NCI-H727	0.401	0.431	0.37	0.382	0.38	0.383	0.344	0.38	0.478	0.426	0.303	0.331	0.316	0.283	0.37	0.352	0.324	0.193	0.412	0.446
NCI-H838	0.552	0.569	0.576	0.557	0.552	0.276	0.293	0.274	0.241	0.318	1.06	1.08	1.06	1.14	1.15	0.395	0.34	0.294	0.257	0.255
NCI-H1355	0.544	0.428	0.457	0.42	0.428	0.847	0.839	0.79	0.695	0.61	0.731	0.872	0.797	0.752	0.758	0.615	0.731	0.622	0.573	0.658
NCI-H1395	1.05	1.01	1.06	0.966	1.04	0.459	0.428	0.402	0.394	0.441	1.09	1.22	1.11	0.305	1.08	0.436	0.457	0.407	0.431	0.417
NCI-H1437	0.598	0.49	0.482	0.498	0.417	0.409	0.442	0.397	0.352	0.556	0.935	1.04	–	0.942	0.754	0.414	0.404	0.425	0.309	0.333
NCI-H1651	0.909	0.843	0.789	0.869	0.834	0.508	0.351	0.423	0.374	0.538	0.928	1.02	0.973	0.884	0.996	0.317	0.393	0.432	0.507	0.517
